Patent US5869494A, “Uses for barbituric acid analogs” (priority 1997, dated 1999)

Key:
MALME-3M = assay: NCI tumor cell line screen (SRB assay); format: cell-based; conditions: Homo sapiens, read-out: PERCENT GROWTH
Protocol: (§1) The National Cancer Institute carried out the studies at the direction of the present inventor.
(§2) In the tests, the National Cancer Institute used the SRB (sulforhodamine B) assay as described by Skehan et al., (Journal of the National Cancer Institute, 82:13, Jul. 4, 1990, 1107-1112). Briefly, the assay is as follows. TCA-fixed cells were stained for 30 minutes with 0.4% (wt/vol) SRB dissolved in 1% acetic acid. At the end of the staining period, SRB was removed and cultures were quickly rinsed four times with 1% acetic acid to remove unbound dye. The acetic acid was poured directly into the culture wells from a beaker. […] Residual wash solution was removed by sharply flicking plates over a sink, which ensured the complete removal of rinsing solution. […] After being rinsed, the cultures were air dried until no standing moisture was visible. Bound dye was solubilized with 10 mM unbuffered Tris base (pH 10.5) for 5 minutes on a gyratory shaker.
(§3) Optical density (OD) was read in either a UVmax microtiter plate reader (Molecular Devices, Menlo Park, Calif.) or a Beckman DU-70 spectrophotometer. For maximum sensitivity, OD was measured at 564 nm. Because readings were linear with dye concentrations only below 1.8 OD units, however, suboptimal wavelengths were generally used, so that all samples in an experiment remained within the linear OD range. With most cell lines, wavelengths of approximately 490-530 nm worked well for this purpose.
(§4) Nine different non-small cell lung carcinoma cell lines, six different colon carcinoma cell lines, six different CNS (central nervous system) carcinoma cell lines, seven different melanoma cell lines, six different ovarian carcinoma cell lines, and eight different renal carcinoma cell lines were tested.

[1] = system: Herpes simplex virus (HSV); assay: Inactivation of Herpes simplex virus (plaque assay on Vero cells); format: cell-based; conditions: for PFU/ml: control 7.1 × 10^5
Protocol: The control sample received vehicle only. After the incubation period, samples were serially diluted and 0.1 ml of each dilution and the undiluted samples were inoculated into monolayers of Vero cells (African green monkey kidney cells). Overlay medium was added and the monolayers were incubated at 37° C. After 3 days of incubation, the overlay medium was removed, and the monolayer cells were fixed with methanol and treated with Giemsa stain.

[2] = system: lung carcinoma (non-small cell); assay: Human tumor cloning system, lung carcinoma (non-small cell); format: cell-based; conditions: responsive = at least 50% inhibition of tumor colony formation
Protocol: (§5) Through the initial work of Hamburger and Salmon (1977 a,b), it is possible to culture human tumors using a two-layer soft agar system. This culture system, called the human tumor cloning system, was initially utilized to select the most appropriate anticancer agent for an individual patient's tumor. […] In an in vitro-in vivo correlation study involving 800 patients retrospectively, it was determined that the true positive rate for this assay was 70%, while the true negative rate for the assay was 98% (Von Hoff et al., 1981). In a more recent prospective clinical trial of the cloning system involving 604 patients, the percent true positive for the assay was 64%, while the percent true negative for the assay was 86% (Von Hoff et al., 1983). […] This system was used to study the response of compound C1 for breast cancer and non-small cell lung carcinoma.
(§6) Collection and preparation of tumor cells: After obtaining informed consent in accordance with federal and institutional guidelines, malignant effusions, ascites and bone marrow aspirates containing tumor cells as well as solid tumor specimens were collected from patients undergoing procedure carried out as a part of their diagnostic workup or as part of treatment for their disease. […] The viability of cell suspensions thus obtained was determined with trypan blue.
(§7) Tumor cells to be cloned were suspended in 0.3% agar in enriched CMRL 1066 medium (Gibco, Grand Island, N.Y.) supplemented with 15% heat-inactivated horse serum, penicillin (100 units/ml), streptomycin (2 mg/ml) glutamine (2 mM), insulin (3 units/ml), asparagine (0.6 mg/ml), and HEPES buffer (2 mM). […] After an incubation period of 14 days, plates were removed and the number of colonies were counted in each plate. The number of colonies (defined as >50 cells) formed were compared in drug treated and untreated (control) plates and the percent colonies surviving at each drug dose tested was then calculated as a percentage of control. […]

T cells = assay: Modulation of T cells in HIV-1 positive subjects; format: in vivo, human; conditions: 4.3 mg/kg for 15 days; one subject; before treatment 425; normal range 650-1330
Text: Blood samples were drawn before and after on day 15 or 30 from the initiation of treatment for regular CBC profile. […] The normal range of T cells is 650-1330.

breast tumor = assay: Human tumor cloning system, breast tumors; format: cell-based; conditions: responsive = at least 50% inhibition of tumor colony formation
Protocol: as §5, §6, §7

[3] = system: human immunodeficiency virus (HIV-1); assay: Inactivation of cell free HIV-1 (MT-4 indicator cells); format: cell-based; conditions: 2 h treatment, MT-4 + HIV-1, day 7
Protocol: After 2 h at 37° C., treated and control HIV-1 samples were added to the indicator MT-4 cells (cultured human T cells) in the presence of 2 μg/ml POLYBRENE™ for 2 h. After washing, MT-4 cells were cultured in the presence of drug-treated or control (untreated) HIV-1. Cell viability of MT-4 cells was determined by the trypan blue dye exclusion method.

HOP-62 = assay: NCI tumor cell line screen (SRB assay); format: cell-based; parameters: activity: dose or concentration left out as unconfirmed; conditions: Homo sapiens, read-out: PERCENT GROWTH
Protocol: as §1, §2, §3, §4

[4] = Vero, 150 μg/ml, 24 h at 37° C.

For `CCCCN1C(=O)CC(=O)N(CCCC)C1=S` [Compound C1, 4,6(1H, 5H)-pyrimidinedione, 1,3-dibutyldihydro-2-thioxo], the activity (MALME-3M; 10^-3.0 Molar) was -83%, the activity at 100 µM (MALME-3M; 10^-4.0 Molar) was 81% and the activity at 10 µM (MALME-3M; 10^-5.0 Molar) was 101%. For the same molecule, the activity at 1 µM (MALME-3M; 10^-6.0 Molar) was 101%, the activity at 0.1 µM (MALME-3M; 10^-7.0 Molar) was 101% and the PFU/ml ([1]; 30 μg/ml, 24 h at 37° C.) was 2.1 × 10^5 PFU/ml. The PFU/ml ([1]; 120 μg/ml, 24 h at 37° C.) was 6.5 × 10^5 PFU/ml, the PFU/ml ([1]; 150 μg/ml, 24 h at 37° C.) was 7.5 × 10^5 PFU/ml and the log reduction at 120 µg/mL ([1]; Vero, 24 h) was 2.04. The killing at 120 µg/mL ([1]; Vero, 24 h, read-out: % Inactivation) was 99%, the killing at 30 µg/mL ([1]; Vero, 30 μg/ml, 24 h at 37° C.) was 70.4% and the log reduction at 30 µg/mL ([1]; Vero, 30 μg/ml, 24 h at 37° C.) was 0.53. For the same molecule, the killing at 60 µg/mL ([1]; Vero, 60 μg/ml, 24 h at 37° C.) was 78.9%, the log reduction at 60 µg/mL ([1]; Vero, 60 μg/ml, 24 h at 37° C.) was 0.68 and the killing at 150 µg/mL [1, 4] was 99.9%. For the same molecule, the log reduction at 150 µg/mL [1, 4] was 3, the “# responsive tumors/total # evaluated” value ([2]; 75 μg/ml) was 0/1 and the “# responsive tumors/total # evaluated” value ([2]; 100 μg/ml) was 1/1. For the same molecule, the “# responsive tumors/total # evaluated” value ([2]; 125 μg/ml) was 1/1, the “T cell count after treatment” value (T cells) was 720 and the “# responsive tumors/total # evaluated” value (breast tumor; 75 μg/ml) was 3/8. For the same molecule, the “# responsive tumors/total # evaluated” value (breast tumor; 100 μg/ml) was 4/8, the “# responsive tumors/total # evaluated” value (breast tumor; 125 μg/ml) was 6/8 and the “% Inactivation Day 7” value ([3]; 125 μg/ml) was 62%. The killing at 75 µg/mL ([3]; Human immunodeficiency virus 1, 168 h, 75 μg/ml) was 7.7%, the killing at 100 µg/mL ([3]; Human immunodeficiency virus 1, 168 h, 100 μg/ml) was 34.1% and the killing at 125 µg/mL ([3]; Human immunodeficiency virus 1, 168 h, 125 μg/ml) was 62.6%. The activity (HOP-62; 10^-3.0 Molar) was -100%, the activity at 100 µM (HOP-62; 10^-4.0 Molar) was 93% and the activity at 10 µM (HOP-62; 10^-5.0 Molar) was 96%. It also gave an activity at 1 µM (HOP-62; 10^-6.0 Molar) of 99% and an activity at 0.1 µM (HOP-62; 10^-7.0 Molar) of 98%.
